# Reference: patent US10829458B2 (Araxes Pharma LLC, priority 2015, dated 2020)
# Target: T1, KRAS G12C 1-169, his-tagged protein, GDP-loaded (Homo sapiens, UniProt P01116, G12C)
# T1 construct: KRAS G12C 1-169, his-tagged protein, GDP-loaded
# Assay: Biochemical assay: covalent modification of KRAS G12C measured by mass spectrometry (RapidFire/TOF or Q-Exactive)
# Details: covalent binding to KRAS G12C
# Procedure, shortened: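 Covalent adduct formation read by intact-mass spectrometry (TOF or Q Exactive Plus, charge envelopes deconvoluted into modified and unmodified species) after formic acid quench. Reactions contained 2 μM GDP-bound KRAS G12C 1-169 (his-tag) in Hepes/NaCl/MgCl2 buffer plus 10, 30 or 100 μM final compound, held 30 min, 2 h or 24 h at room temperature.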
structure (smiles),measurement,setting,value
"C=CC(=O)N1CCN(c2nc(OCCN3CCC(F)(F)CC3)nc3c(F)c(-c4c(O)cccc4F)c(Cl)cc23)CC1 [Example I-38, 1-(4-(6-chloro-2-(2-(4,4-difluoro-piperidin-1-yl)ethoxy)-8-fluoro-7-(2-fluoro-6-hydroxyphenyl)quinazolin-4-yl)piperazin-1-yl) prop-2-en-1-one]",Binding %,compounds of structure (I),+++ (+++ indicates binding activity greater than 90%)
"C=CC(=O)N1CCN(c2nc(N3CCOCC3)nc3c(F)c(-c4cc(O)cc5ccccc45)c(Cl)cc23)CC1 [Example I-46, 1-(4-(6-chloro-8-fluoro-7-(3-hydroxy-naphthalen-1-yl)-2-morpholino-quinazolin-4-yl)piperazin-1-yl)prop-2-en-1-one]",Binding %,compounds of structure (I),+++ (+++ indicates binding activity greater than 90%)
"C=CC(=O)N1CCN(c2nc(OCC3CCOCC3)nc3c(F)c(-c4c(C)ccc5[nH]ncc45)c(Cl)cc23)CC1 [Example I-15, 1-(4-(6-chloro-8-fluoro-7-(5-methyl-1H-indazol-4-yl)-2-((tetrahydro-2H-pyran-4-yl)methoxy)quinazolin-4-yl)piperazin-1-yl)prop-2-en-1-one]",Binding %,compounds of structure (I),+++ (+++ indicates binding activity greater than 90%)
"C=CC(=O)N1CCN(c2nc(OCCN(CC)CC)nc3c(F)c(-c4c(O)cccc4F)c(Cl)cc23)CC1 (atropisomer, axis not shown) [Example I-88, (R)-1-(4-(6-chloro-2-(2-(diethylamino)ethoxy)-8-fluoro-7-(2-fluoro-6-hydroxyphenyl)quinazolin-4-yl)piperazin-1-yl) prop-2-en-1-one]",Binding %,compounds of structure (I),+ (+ indicates binding activity up to 50%)
"C=CC(=O)N1CCN(c2nc(OC3CCN(C)CC3)nc3c(F)c(-c4c(O)cccc4F)c(Cl)cc23)CC1 [Example I-92, 1-(4-(6-chloro-8-fluoro-7-(2-fluoro-6-hydroxyphenyl)-2-(1-methyl-piperidin-4-yloxy)quinazolin-4-yl)piperazin-1-yl)prop-2-en-1-one]",Binding %,compounds of structure (I),+++ (+++ indicates binding activity greater than 90%)
"C=CC(=O)N1CCN(c2nc(OCCP(C)(C)=O)nc3c(F)c(-c4c(O)cccc4F)c(Cl)cc23)CC1 [Example I-206, 1-(4-(6-chloro-2-(2-(dimethyl-phosphoryl)ethoxy)-8-fluoro-7-(2-fluoro-6-hydroxyphenyl)quinazolin-4-yl)piperazin-1-yl) prop-2-en-1-one]",Binding %,compounds of structure (I),+++ (+++ indicates binding activity greater than 90%)
"C=CC(=O)N1CCN(c2nc(N3CC(COC)C3)nc3c(F)c(-c4c(C)ccc5[nH]ncc45)c(Cl)cc23)CC1 [Example I-152, 1-(4-(6-chloro-8-fluoro-2-(3-(methoxy-methyl)azetidin-1-yl)-7-(5-methyl-1H-indazol-4-yl)quinazolin-4-yl)piperazin-1-yl) prop-2-en-1-one]",Binding %,compounds of structure (I),+++ (+++ indicates binding activity greater than 90%)
"C=CC(=O)N1CCN(c2ncnc3c(F)c(-c4c(O)cccc4F)c(Cl)cc23)[C@@H](CC)C1 [III-32, 1-((3S)-4-(6-chloro-8-fluoro-7-(2-fluoro-6-hydroxy-phenyl)quinazolin-4-yl)-3-ethyl-piperazin-1-yl)prop-2-en-1-one]",Binding %,compounds of structure (III),++ (++ indicates activity from 50% to 90%)
"C=CC(=O)N1CCN(c2nc(OCCNC)nc3c(F)c(-c4c(O)cccc4F)c(Cl)cc23)CC1 [Example I-86, 1-(4-(6-chloro-8-fluoro-7-(2-fluoro-6-hydroxyphenyl)-2-(2-(methyl-amino)ethoxy)quinazolin-4-yl)piperazin-1-yl)prop-2-en-1-one]",Binding %,compounds of structure (I),+++ (+++ indicates binding activity greater than 90%)
"C=CC(=O)N1CCN(c2nc(N3CC(N(C)C)C3)nc3c(F)c(-c4c(O)cccc4F)c(Cl)cc23)CC1 (atropisomer, axis not shown) [Example I-117, (R)-1-(4-(6-chloro-2-(3-(dimethylamino)azetidin-1-yl)-8-fluoro-7-(2-fluoro-6-hydroxyphenyl)quinazolin-4-yl)piperazin-1-yl) prop-2-en-1-one]",Binding %,compounds of structure (I),+ (+ indicates binding activity up to 50%)
"C=CC(=O)N1CCN(c2nc(C(=O)N3CCN(C)CC3)nc3c(F)c(-c4c(O)cccc4F)c(Cl)cc23)CC1 [Example I-90, 1-(4-(6-chloro-8-fluoro-7-(2-fluoro-6-hydroxyphenyl)-2-(4-methyl-piperazine-1-carbonyl)quinazolin-4-yl)piperazin-1-yl)prop-2-en-1-one]",Binding %,compounds of structure (I),+++ (+++ indicates binding activity greater than 90%)
"C=CC(=O)N1CCN(c2nc(OCC3CN(c4ncccc4F)C3)nc3c(F)c(-c4c(C)ccc5[nH]ncc45)c(Cl)cc23)CC1 [Example I-158, 1-(4-(6-chloro-8-fluoro-2-((1-(3-fluoropyridin-2-yl)azetidin-3-yl)methoxy)-7-(5-methyl-1H-indazol-4-yl)quinazolin-4-yl)piperazin-1-yl) prop-2-en-1-one]",Binding %,compounds of structure (I),+++ (+++ indicates binding activity greater than 90%)
"C=CC(=O)N1[C@H](C)CN(c2ncnc3c(F)c(-c4cc(O)cc5ccccc45)c(Cl)cc23)C[C@@H]1C [III-27, 1-((2S,6R)-4-(6-chloro-8-fluoro-7-(3-hydroxy-naphthalen-1-yl)quinazolin-4-yl)-2,6-dimethyl-piperazin-1-yl)prop-2-en-1-one]",Binding %,compounds of structure (III),+++ (+++ indicates binding activity greater than 90%)
"C=CC(=O)N1CCN(c2nc(CP(C)(C)=O)nc3c(F)c(-c4c(O)cccc4F)c(Cl)cc23)CC1 [Example I-209, 1-(4-(6-chloro-2-((dimethyl-phosphoryl)methyl)-8-fluoro-7-(2-fluoro-6-hydroxyphenyl)quinazolin-4-yl)piperazin-1-yl) prop-2-en-1-one]",Binding %,compounds of structure (I),++ (++ indicates binding activity from 50 to 90%)
"C=CC(=O)N1CCN(c2nc(NC3CCN(CC4CC4)CC3)nc3c(F)c(-c4c(C)ccc5[nH]ncc45)c(Cl)cc23)CC1 [Example I-128, 1-(4-(6-chloro-2-(1-(cyclo-propylmethyl)piperidin-4-ylamino)-8-fluoro-7-(5-methyl-1H-indazol-4-yl)quinazolin-4-yl)piperazin-1-yl) prop-2-en-1-one]",Binding %,compounds of structure (I),+++ (+++ indicates binding activity greater than 90%)
"C=CC(=O)N1CCN(c2nc(NC3CCN(CC#N)CC3)nc3c(F)c(-c4c(C)ccc5[nH]ncc45)c(Cl)cc23)CC1 [Example I-165, 2-(4-((4-(4-acryloyl-piperazin-1-yl)-6-chloro-8-fluoro-7-(5-methyl-1H-indazol-4-yl)quinazolin-2-yl)amino)piperidin-1-yl) acetonitrile]",Binding %,compounds of structure (I),++ (++ indicates binding activity from 50 to 90%)
"C=CC(=O)N1CCN(c2nc(OCCn3ccnc3)nc3c(F)c(-c4c(C)ccc5[nH]ncc45)c(Cl)cc23)CC1 [Example I-7, 1-(4-(2-(2-(1H-imidazol-1-yl)ethoxy)-6-chloro-8-fluoro-7-(5-methyl-1H-indazol-4-yl)quinazolin-4-yl)piperazin-1-yl)prop-2-en-1-one]",Binding %,compounds of structure (I),++ (++ indicates binding activity from 50 to 90%)
"C=CC(=O)N1CCN(c2nc(NC3CCN(C(C)(C)C)CC3)nc3c(F)c(-c4c(C)ccc5[nH]ncc45)c(Cl)cc23)CC1 [Example I-177, 1-(4-(2-((1-(tert-butyl)piperidin-4-yl)amino)-6-chloro-8-fluoro-7-(5-methyl-1H-indazol-4-yl)quinazolin-4-yl)piperazin-1-yl) prop-2-en-1-one]",Binding %,compounds of structure (I),+++ (+++ indicates binding activity greater than 90%)
"C=CC(=O)N1CCN(c2nc(OC)nc3c(OC)c(-c4c(O)cccc4F)c(Cl)cc23)CC1 [Example I-154, 1-(4-(6-chloro-7-(2-fluoro-6-hydroxyphenyl)-2,8-dimethoxy-quinazolin-4-yl)piperazin-1-yl) prop-2-en-1-one]",Binding %,compounds of structure (I),+++ (+++ indicates binding activity greater than 90%)
"C=C(F)C(=O)N1CCN(c2nc(OCCN3CCOCC3)nc3c(F)c(-c4c(O)cccc4F)c(Cl)cc23)CC1 [Example I-60, 1-(4-(6-chloro-8-fluoro-7-(2-fluoro-6-hydroxyphenyl)-2-(2-morpholino-ethoxy)quinazolin-4-yl)piperazin-1-yl)-2-fluoroprop-2-en-1-one]",Binding %,compounds of structure (I),++ (++ indicates binding activity from 50 to 90%)
"C=CC(=O)N1CCN(c2nc(C(N)=O)nc3c(F)c(-c4c(O)cccc4F)c(Cl)cc23)CC1 [Example I-85, 4-(4-acryloyl-piperazin-1-yl)-6-chloro-8-fluoro-7-(2-fluoro-6-hydroxyphenyl) quinazoline-2-carboxamide]",Binding %,compounds of structure (I),+++ (+++ indicates binding activity greater than 90%)
"C=CC(=O)N1CCN(c2nc(OCCN3CC(F)(F)C3)nc3c(F)c(-c4cc(O)cc5ccccc45)c(Cl)cc23)CC1 [Example I-107, 1-(4-(6-chloro-2-(2-(3,3-difluoro-azetidin-1-yl)ethoxy)-8-fluoro-7-(3-hydroxy-naphthalen-1-yl)quinazolin-4-yl)piperazin-1-yl) prop-2-en-1-one]",Binding %,compounds of structure (I),+++ (+++ indicates binding activity greater than 90%)
"C=CC(=O)N1CCN(c2nc(NC3CCN(C4COC4)CC3)nc3c(F)c(-c4c(C)ccc5[nH]ncc45)c(Cl)cc23)CC1 [Example I-137, 1-(4-(6-chloro-8-fluoro-7-(5-methyl-1H-indazol-4-yl)-2-(1-(oxetan-3-yl)piperidin-4-ylamino)quinazolin-4-yl)piperazin-1-yl) prop-2-en-1-one]",Binding %,compounds of structure (I),+++ (+++ indicates binding activity greater than 90%)
"C=CC(=O)N1CCN(c2nc(OCCN(C)C)nc3c(F)c(-c4cc(O)cc5ccccc45)c(Cl)cc23)CC1 (atropisomer, axis not shown) [Example I-95, (S)-1-(4-(6-chloro-2-(2-(dimethylamino)ethoxy)-8-fluoro-7-(3-hydroxy-naphthalen-1-yl)quinazolin-4-yl)piperazin-1-yl)prop-2-en-1-one]",Binding %,compounds of structure (I),+++ (+++ indicates binding activity greater than 90%)
